Data as given in patent US20090291857A1, “METHODS TO IDENTIFY INHIBITORS OF THE UNFOLDED PROTEIN RESPONSE” (THE BOARD OF TRUSTEES OF THE LELAND STANFORD JUNIOR …, priority 2006, published 2009).

Key:
[1] = Analysis of blood chemistry and cell composition; type: in vivo, mouse
Description: Complete blood counts (CBC's) and clinical chemistry panels were performed on blood obtained by cardiac puncture after euthanasia with CO2. Gross necropsies were performed, all major viscera were harvested, fixed in 10% buffered neutral formalin, routinely processed for paraffin embedding, and stained with hematoxylin and eosin (H&E). Sections were analyzed by a board-certified veterinary pathologist (DMB).
The increased sensitivity of irestatin-treated cells to hypoxic stress in vitro indicate that selective inhibition of IRE1α signaling could impact tumor growth. […] In contrast, XBP-1s was not detected in normal pancreas specimens (0/20), and infrequently observed in chronic pancreatitis (1/29) (FIG. 15). To explore the effects to irestatin 9389 in vivo, we first established animal dosing parameters using real-time bioluminescence imaging of SCID mice that had been implanted subcutaneously (s.c.) with tumor cells stably expressing the XBP-luciferase reporter. […] The XBP-luciferase signal returned to basal levels by 24 hours after treatment. […] (FIG. 16).

[2] = test system: ATF6; experiment: ATF6 cleavage in hypoxic HT1080 cells (Western blot); type: cell-based, human; conditions: 2.5 μM, hypoxia
Description: (§1) A. Effect of irestatin 9389 on PERK and ATF6 pathways. HT1080 cells were treated with vehicle alone (lanes 1-4) or 2.5 μM irestatin 9389 (lanes 5-8) and cultured under aerobic conditions for 18 hours (N) or shifted to hypoxia for the indicated times. Protein lysates were analyzed by Western blot analysis using antisera specific for ATF6 (top), CHOP/GADD153 (middle) or actin (bottom). Arrow indicates the cleaved, transcriptionally active form of ATF6. B. Cleavage of caspase-3 in irestatin-treated cells under hypoxia. HT1080 cells were cultured in normoxia (N) or under hypoxia for 36 hours (H 36) in absence or presence of irestatin 9389 (2.5 μM). Arrows indicate proteolytically cleaved caspase-3. C. Colony formation assay. HT1080 cells were treated as in B under normoxia (N) or hypoxia for 48 hours (H 48). Cells were harvested, counted, and allowed to grow under normal culture conditions for 11-12 days. Colonies were visualized with crystal violet staining. D. Quantification of clonogenic survival assay. Values represent the mean+/−SEM from at least 4 independent experiments. E. TUNEL staining of cells treated as in C. F. Quantification of TUNEL-positive cells. Values represent the mean+/−SEM from at least 3 experiments. […] Cells were harvested at the indicated times and counted by hemocytometer. Values represent the mean calculated from triplicate experiments +/−SEM. […]

[3] = test system: HT1080 fibrosarcoma; experiment: Cell proliferation assay, HT1080; type: cell-based, human; conditions: same concentrations
Description: as §1

[4] = test system: HT1080 cells; experiment: Clonogenic survival / colony formation assay, HT1080; type: cell-based, human; conditions: 2.5 μM
Description: Several of the candidate irestatins were tested in a hypoxia clonogenic survival assay. […] HT1080 fibrosarcoma cells stably were treated with 1 uM of the indicated irestatin or left untreated, and incubated in hypoxia (0.01% oxygen) for 48 hrs at 37° C. Cells were harvested and counted, and allowed to form colonies under normal oxygen tension. Survival rate is expressed as the fraction of colonies formed divided by the total number of cells seeded for each condition. For all experiments, cells were plated in triplicate, and all experiments were repeated at least three times. These experiments were repeated using MiaPaCa2 cells in place of the HT 1080 fibrosarcoma cells.
For hypoxia survival assays, cells were grown in 60 mm dishes until reaching at 50-70% confluence and shifted to hypoxia (0.1% O2) for 48 hrs. Cells were trypsinized, counted using a hemocytometer, and replated in triplicate at 1,000-20,000 cells per plate in normal culture medium. After 10-12 days of growth under normal oxygen conditions, colonies were stained with 0.2% crystal violet in ethanol and counted. Survival values are expressed as the number of colonies divided by the total number of cells seeded for each condition, normalized to the plating efficiency under normal oxygen conditions. […]
A. Effect of irestatin 9389 on PERK and ATF6 pathways. […] D. Quantification of clonogenic survival assay. […]

## Cc1csc(NC(=O)CSc2nc3c(c(C(F)(F)F)c2C#N)CCC3)n1 [Compound 9389]
[1]; 50 mg/kg
  fasting blood glucose levels versus vehicle: no significant difference
[1]; mean, irestatin-treated mice, complete blood count
  HCT: 47%
[1]; mean, irestatin-treated mice, terminal cardiac blood
  Total Bilirubin: 0.3 mg/dL
[2]
  proteolytic cleavage of ATF6 into active 50 kDa form: significantly increased
[3]
  growth rate of HT1080 cells under normal conditions: negligible effect
[4]; hypoxia 48 hours
  colony formation after hypoxia: strongly inhibited colony formation
[4]; normal oxygen conditions
  survival of HT1080 cells under normal oxygen: negligible effect
